Results taken from PMC6701825, “Antiproliferative and Antimigratory Effects of a Novel YAP–TEAD Interaction Inhibitor Identified Using in Silico Molecular Docking” (Journal of Medicinal Chemistry, 2019).

Legend:
TEAD4 = biological target: T1, TEAD4 (Homo sapiens, UniProt Q15561); experiment: GAL4-TEAD4 fusion / 5xGAL4-secNLUC reporter in HeLa cells; type: cell-based; conditions: 100 μM, 6 h
T1 construct: #18881 (FLAG-YAP); host or cells: HeLa
Source text: TEAD proteins (TEAD1–4) display a high degree of sequence conservation in residues that create the hydrophobic pocket that is essential for YAP binding.[51] YAP proteins also display a high degree of conservation in residues that interact with this pocket.[51] We therefore tested whether CPD3.1 was able to inhibit YAP-induced activity of TEAD1, TEAD2, TEAD3, and TEAD4. To quantify the effect of CPD3.1 on the activity of each individual TEAD paralog, while excluding interference from endogenously expressed TEAD1–4 proteins, we expressed each TEAD paralog (TEAD1–4) fused to the yeast GAL4 DNA-binding domain. Cells were transfected with the GAL4–TEAD expression vector together with a secreted nanoluciferase reporter gene vector under control of a promoter containing five GAL4 DNA-binding elements. This system allows us to study the effect of CPD3.1 on the activity of each individual TEAD protein in isolation, without interference from endogenously expressed transcription factors. In addition, the cells were co-transfected with a YAP expression vector to activate the GAL4–TEAD fusion-dependent transcription (see Supplement Figure 9). Basal activities of TEAD1, TEAD2, TEAD3, and TEAD4 were inhibited by CPD3.1 (Figure 7A–D). […]
Figure 7 Compound 3.1 inhibits TEAD1, TEAD2, TEAD3, and TEAD4 activities. […] Secreted nano-luciferase activity was quantified in the conditioned media. […]

CCN1 protein = experiment: Western blotting of CCN1 protein in VSMC lysates; type: cell-based; conditions: indicated concentrations, 16 hr
Procedure: Figure 9 Compound 3.1 inhibits TEAD target gene expression, cell proliferation, and cell migration in RaVSMCs. RaVSMCs stably transduced with TEAD-NLUC (A) or transiently transfected with CCN1-LUC or CTGF-LUC were treated with the indicated concentrations of compound 3.1 for 6 hr. Cell conditioned media (A) or cell lysates (B−C) were assayed for nanoluciferase or fire-fly luciferase activity, respectively. VSMC were treated with 60 μM compound 3.1 for 6 h (n = 3). Total RNA was analyzed for mRNA levels of TEAD-target genes (D) or constitutive housekeeping genes (E) by qRT-PCR. VSMC were treated with indicated concentrations of compound 3.1 for 16 hr (n = 4). Total cell lysates were analyzed for CCN1 protein expression by Western blotting (F). RaVSMCs (G) or HuVSMC (H) were treated with indicated concentrations of compound 3.1 for 18 h followed by labeling in 10 μM EdU for a further 6 h (n = 4). RaVSMCs (I) or HuVSMC (J) were treated with indicated concentrations of compound 3.1 and cell migration quantified using IncuCyte real time migration assay (n = 4).
Extracted samples were separated by 4–12% SDS-polyacrylamide gel electrophoresis (Bio-Rad) and transferred to poly(vinylidene difluoride) membranes (GE Healthcare). Membranes were blocked in 5% low-fat milk in 10 mM Tris pH 7.6, 150 mM NaCl, 0.2% Tween. […]

T1 sequence (Q15561 whole entry, the tested form may be a part): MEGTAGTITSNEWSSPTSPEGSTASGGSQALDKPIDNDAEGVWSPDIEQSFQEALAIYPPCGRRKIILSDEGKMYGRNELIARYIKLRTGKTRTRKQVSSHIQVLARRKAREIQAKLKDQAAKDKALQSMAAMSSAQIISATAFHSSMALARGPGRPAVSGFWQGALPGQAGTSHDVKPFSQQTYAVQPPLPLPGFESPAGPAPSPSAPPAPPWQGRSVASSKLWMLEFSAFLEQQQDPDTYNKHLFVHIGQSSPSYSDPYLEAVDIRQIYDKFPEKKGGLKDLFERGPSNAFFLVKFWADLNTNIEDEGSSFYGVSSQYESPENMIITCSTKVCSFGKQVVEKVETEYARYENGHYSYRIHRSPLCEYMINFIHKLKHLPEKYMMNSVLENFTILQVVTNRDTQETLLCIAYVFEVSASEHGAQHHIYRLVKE

Compound: Cc1ccc2c(c1)c1c3n2CCNC3CCC1 (stereo not drawn) [CPD3.1]
- basal activity of GAL4-TEAD4 (TEAD4): inhibited
- YAP-stimulated activity of GAL4-TEAD4 (TEAD4; YAP overexpression): significantly inhibited
- CCN1 protein levels (Western blot) (CCN1 protein): inhibited the expression of CCN1 protein levels
